According to patent publication US11331369B2, “Endoparasitic depsipeptides” (Zoetis Services LLC, priority 2017, dated 2022):

Tested on: microfilariae of Dirofilaria immitis
Assay: Dirofilaria immitis, Microfilaria (DiMF) In vitro Assay
Format: cell-based
Conditions: 72 h, read-out: DiMF Minimum Effective Dose (MED), approximately 72 hours incubation, microfilariae assessed for survival or paralysis

Row | Compound | minimal effective concentration [µM]
1 | CC(C)C[C@H]1C(=O)O[C@H](Cc2cccc(Cn3nc(CO)cc3CO)c2)C(=O)N(C)[C@@H](CC(C)C)C(=O)O[C@H](C)C(=O)N(C)[C@@H](CC(C)C)C(=O)O[C@H](Cc2ccccc2)C(=O)N(C)[C@@H](CC(C)C)C(=O)O[C@H](C)C(=O)N1C [Example 5-4, (3S,6R,9S,12R,15S,18R,21S,24R)-6-benzyl-18-(3-((3,5-bis(hydroxymethyl)-1H-pyrazol-1-yl)methyl)benzyl)-3,9,15,21-tetraisobutyl-4,10,12,16,22,24-hexamethyl-1,7,13,19-tetraoxa-4,10,16,22-tetraazacyclotetracosan-2,5,8,11,14,17,20,23-octaone] | 0.01 to 0.1
2 | Cc1cn(Cc2ccc(C[C@H]3OC(=O)[C@H](CC(C)C)N(C)C(=O)[C@@H](C)OC(=O)[C@H](CC(C)C)N(C)C(=O)[C@@H](Cc4ccccc4)OC(=O)[C@H](CC(C)C)N(C)C(=O)[C@@H](C)OC(=O)[C@H](CC(C)C)N(C)C3=O)cc2)c(C)n1 [Example 8-5, (3S,6R,9S,12R,15S,18R,21S,24R)-6-benzyl-18-(4-((2,4-dimethyl-1H-imidazol-1-yl)methyl)benzyl)-3,9,15,21-tetraisobutyl-4,10,12,16,22,24-hexamethyl-1,7,13,19-tetraoxa-4,10,16,22-tetraazacyclotetracosan-2,5,8,11,14,17,20,23-octaone] | 0.01 to 0.1
3 | CCCc1cnn(Cc2ccc(C[C@H]3OC(=O)[C@H](CC(C)C)N(C)C(=O)[C@@H](C)OC(=O)[C@H](CC(C)C)N(C)C(=O)[C@@H](Cc4ccccc4)OC(=O)[C@H](CC(C)C)N(C)C(=O)[C@@H](C)OC(=O)[C@H](CC(C)C)N(C)C3=O)cc2)c1 [Example 2-26, (3S,6R,9S,12R,15S,18R,21S,24R)-6-benzyl-3,9,15,21-tetraisobutyl-4,10,12,16,22,24-hexamethyl-18-(4-((4-propyl-1H-pyrazol-1-yl)methyl)benzyl)-1,7,13,19-tetraoxa-4,10,16,22-tetraazacyclotetracosan-2,5,8,11,14,17,20,23-octaone] | 0.01 to 0.1
4 | CC(C)C[C@H]1C(=O)O[C@H](Cc2ccc(Cn3cc(OC(F)F)cn3)cc2)C(=O)N(C)[C@@H](CC(C)C)C(=O)O[C@H](C)C(=O)N(C)[C@@H](CC(C)C)C(=O)O[C@H](Cc2ccc(Cn3cc(OC(F)F)cn3)cc2)C(=O)N(C)[C@@H](CC(C)C)C(=O)O[C@H](C)C(=O)N1C [Example 1b-140, (3S,6R,9S,12R,15S,18R,21S,24R)-6,18-bis(4-((4-(difluoromethoxy)-1H-pyrazol-1-yl)methyl)benzyl)-3,9,15,21-tetraisobutyl-4,10,12,16,22,24-hexamethyl-1,7,13,19-tetraoxa-4,10,16,22-tetraazacyclotetracosan-2,5,8,11,14,17,20,23-octaone] | 0.01 to 0.1
5 | CC(C)C[C@H]1C(=O)O[C@H](Cc2ccc(Cn3nc(C(C)C)cc3C(C)C)cc2)C(=O)N(C)[C@@H](CC(C)C)C(=O)O[C@H](C)C(=O)N(C)[C@@H](CC(C)C)C(=O)O[C@H](Cc2ccccc2)C(=O)N(C)[C@@H](CC(C)C)C(=O)O[C@H](C)C(=O)N1C [Example 2-54, (3S,6R,9S,12R,15S,18R,21S,24R)-6-benzyl-18-(4-((3,5-diisopropyl-1H-pyrazol-1-yl)methyl)benzyl)-3,9,15,21-tetraisobutyl-4,10,12,16,22,24-hexamethyl-1,7,13,19-tetraoxa-4,10,16,22-tetraazacyclotetracosan-2,5,8,11,14,17,20,23-octaone] | 0.01 to 0.1
6 | CCc1nn(Cc2ccc(C[C@H]3OC(=O)[C@H](CC(C)C)N(C)C(=O)[C@@H](C)OC(=O)[C@H](CC(C)C)N(C)C(=O)[C@@H](Cc4ccccc4)OC(=O)[C@H](CC(C)C)N(C)C(=O)[C@@H](C)OC(=O)[C@H](CC(C)C)N(C)C3=O)cc2)c(CC)c1N [Example 2-86, (3S,6R,9S,12R,15S,18R,21S,24R)-6-(4-((4-amino-3,5-diethyl-1H-pyrazol-1-yl)methyl)benzyl)-18-benzyl-3,9,15,21-tetraisobutyl-4,10,12,16,22,24-hexamethyl-1,7,13,19-tetraoxa-4,10,16,22-tetraazacyclotetracosan-2,5,8,11,14,17,20,23-octaone] | 0.01 to 0.1
7 | CC(C)C[C@H]1C(=O)O[C@H](Cc2cccc(Cn3cc(-c4ccccn4)cn3)c2)C(=O)N(C)[C@@H](CC(C)C)C(=O)O[C@H](C)C(=O)N(C)[C@@H](CC(C)C)C(=O)O[C@H](Cc2cccc(Cn3cc(-c4ccccn4)cn3)c2)C(=O)N(C)[C@@H](CC(C)C)C(=O)O[C@H](C)C(=O)N1C [Example 4-16, (3S,6R,9S,12R,15S,18R,21S,24R)-3,9,15,21-tetraisobutyl-4,6,10,16,18,22-hexamethyl-12,24-bis(3-((4-(pyridin-2-yl)-1H-pyrazol-1-yl)methyl)benzyl)-1,7,13,19-tetraoxa-4,10,16,22-tetraazacyclotetracosan-2,5,8,11,14,17,20,23-octaone] | 0.01 to 0.1
8 | CC(C)C[C@H]1C(=O)O[C@H](Cc2ccc(Cn3cc(Br)c(C#N)n3)cc2)C(=O)N(C)[C@@H](CC(C)C)C(=O)O[C@H](C)C(=O)N(C)[C@@H](CC(C)C)C(=O)O[C@H](Cc2ccc(Cn3cc(N)cn3)cc2)C(=O)N(C)[C@@H](CC(C)C)C(=O)O[C@H](C)C(=O)N1C [Example 1a-32, 1-(4-(((2R,5S,8R,11S,14R,17S,20R,23S)-14-(4-((4-amino-1H-pyrazol-1-yl)methyl)benzyl)-5,11,17,23-tetraisobutyl-4,8,10,16,20,22-hexamethyl-3,6,9,12,15,18,21,24-octaoxo-1,7,13,19-tetraoxa-4,10,16,22-tetraazacyclotetracosan-2-yl)methyl)benzyl)-4-bromo-1H-pyrazole-3-carbonitrile] | 0.01 to 0.1
9 | CC(C)C[C@H]1C(=O)O[C@H](Cc2ccc(Cn3ccnc3I)cc2)C(=O)N(C)[C@@H](CC(C)C)C(=O)O[C@H](C)C(=O)N(C)[C@@H](CC(C)C)C(=O)O[C@H](Cc2ccc(Cn3ccnc3I)cc2)C(=O)N(C)[C@@H](CC(C)C)C(=O)O[C@H](C)C(=O)N1C [Example 6-10, (3S,6R,9S,12R,15S,18R,21S,24R)-6,18-bis(4-((2-iodo-1H-imidazol-1-yl)methyl)benzyl)-3,9,15,21-tetraisobutyl-4,10,12,16,22,24-hexamethyl-1,7,13,19-tetraoxa-4,10,16,22-tetraazacyclotetracosan-2,5,8,11,14,17,20,23-octaone] | 0.01 to 0.1
10 | CC(C)C[C@H]1C(=O)O[C@H](Cc2ccc(Cn3cc(-c4ccccc4)nn3)cc2)C(=O)N(C)[C@@H](CC(C)C)C(=O)O[C@H](C)C(=O)N(C)[C@@H](CC(C)C)C(=O)O[C@H](Cc2ccccc2)C(=O)N(C)[C@@H](CC(C)C)C(=O)O[C@H](C)C(=O)N1C [Example 9-33, (3S,6R,9S,12R,15S,18R,21S,24R)-6-benzyl-3,9,15,21-tetraisobutyl-4,10,12,16,22,24-hexamethyl-18-(4-((4-phenyl-1H-1,2,3-triazol-1-yl)methyl)benzyl)-1,7,13,19-tetraoxa-4,10,16,22-tetraazacyclotetracosan-2,5,8,11,14,17,20,23-octaone] | 0.01 to 0.1
11 | CC(C)C[C@H]1C(=O)O[C@H](Cc2ccc(Cn3cc(OC4COC4)cn3)cc2)C(=O)N(C)[C@@H](CC(C)C)C(=O)O[C@H](C)C(=O)N(C)[C@@H](CC(C)C)C(=O)O[C@H](Cc2ccc(Cn3cc(OC4COC4)cn3)cc2)C(=O)N(C)[C@@H](CC(C)C)C(=O)O[C@H](C)C(=O)N1C [Example 1b-142, (3S,6R,9S,12R,15S,18R,21S,24R)-3,9,15,21-tetraisobutyl-4,6,10,16,18,22-hexamethyl-12,24-bis(4-((4-(oxetan-3-yloxy)-1H-pyrazol-1-yl)methyl)benzyl)-1,7,13,19-tetraoxa-4,10,16,22-tetraazacyclotetracosan-2,5,8,11,14,17,20,23-octaone] | 0.001 to 0.01
12 | CCOc1cc(C)n(Cc2ccc(C[C@H]3OC(=O)[C@H](CC(C)C)N(C)C(=O)[C@@H](C)OC(=O)[C@H](CC(C)C)N(C)C(=O)[C@@H](Cc4ccc(Cn5nc(OCC)cc5C)cc4)OC(=O)[C@H](CC(C)C)N(C)C(=O)[C@@H](C)OC(=O)[C@H](CC(C)C)N(C)C3=O)cc2)n1 [Example 1b-159, (3S,6R,9S,12R,15S,18R,21S,24R)-6,18-bis(4-((3-ethoxy-5-methyl-1H-pyrazol-1-yl)methyl)benzyl)-3,9,15,21-tetraisobutyl-4,10,12,16,22,24-hexamethyl-1,7,13,19-tetraoxa-4,10,16,22-tetraazacyclotetracosan-2,5,8,11,14,17,20,23-octaone] | 0.01 to 0.1
13 | CC(C)C[C@H]1C(=O)O[C@H](Cc2ccc(Cn3ccnc3)cc2)C(=O)N(C)[C@@H](CC(C)C)C(=O)O[C@H](C)C(=O)N(C)[C@@H](CC(C)C)C(=O)O[C@H](Cc2ccc(Cn3ccnc3)cc2)C(=O)N(C)[C@@H](CC(C)C)C(=O)O[C@H](C)C(=O)N1C [Example 6-2, (3S,6R,9S,12R,15S,18R,21S,24R)-6,18-bis[[4-(imidazol-1-ylmethyl)phenyl]methyl]-3,9,15,21-tetraisobutyl-4,10,12,16,22,24-hexamethyl-1,7,13,19-tetraoxa-4,10,16,22-tetrazacyclotetracosane-2,5,8,11,14,17,20,23-octaone] | 0.01 to 0.1
14 | Cc1cnn(Cc2ccc(C[C@H]3OC(=O)[C@H](CC(C)C)N(C)C(=O)[C@@H](C)OC(=O)[C@H](CC(C)C)N(C)C(=O)[C@@H](Cc4ccc(Cn5cc(Br)cn5)cc4)OC(=O)[C@H](CC(C)C)N(C)C(=O)[C@@H](C)OC(=O)[C@H](CC(C)C)N(C)C3=O)cc2)c1 [Example 1a-24, (3S,6R,9S,12R,15S,18R,21S,24R)-6-(4-((4-bromo-1H-pyrazol-1-yl)methyl)benzyl)-3,9,15,21-tetraisobutyl-4,10,12,16,22,24-hexamethyl-18-(4-((4-methyl-1H-pyrazol-1-yl)methyl)benzyl)-1,7,13,19-tetraoxa-4,10,16,22-tetraazacyclotetracosan-2,5,8,11,14,17,20,23-octaone] | 0.001 to 0.01
